System: methicillin resistant Staphylococcus aureus (MRSA)
Experiment: Agar well diffusion method, antibacterial activity on Mueller Hinton media
Assay type: cell-based
Conditions: for Inhibition zone diameter: bacterial lawn of Staphylococcus aureus grown on Mueller Hinton media, agar well diffusion
Experimental: The antibacterial activities of safranal, a mixture of compound 2 and compound 3 obtained by the thermal epoxidation of safranal according to scheme 1, and a mixture of compound 2 and compound 3 obtained by the photochemical epoxidation of safranal according to scheme 2 against methicillin resistant Staphylococcus aureus (MRSA) were determined by the agar well diffusion method described by Collins, C. H., P. M. Lyne, J. M. Grange, Microbial Methods., 6th Edition, Butterworhs Co. Ltd, London; 1989. p. 410, incorporated herein by reference in its entirety.
Table 1: Antibacterial Activity (Inhibition Zone Diameter) of the Mixture of Compound 2 and Compound 3 Obtained by the Thermal Epoxidation of Safranal or by the Photochemical Epoxidation of Safranal, and Safranal Against Staphylococcus aureus Grown on Mueller Hinton Media Using Agar Well Diffusion Method

For `CC1=C(C=O)C(C)(C)CC=C1` [Safranal, 2,6,6-trimethylcyclohexa-1,3-diene-1-carbaldehyde], the “Inhibition zone in the bacterial lawn (presence/absence)” value (Staphylococcus aureus on Mueller Hinton media in a petri dish, agar well containing test substance, FIG. 3B-3D) was “presence of an inhibition zone”, the Inhibition zone diameter was 27.00 mm and the Inhibition zone diameter (listed as safranal) was 27 mm.

Source: patent US9707203B1, “Methods of killing bacteria and preventing or treating bacterial infection with oxidation products of safranal and methods of synthesizing safranal epoxides” (King Abdulaziz University, priority 2016, dated 2017)
